Assay results taken from PubChem BioAssay (NCI).
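96-well plates; 48 h exposure; 5 concentrations. Endpoints by linear interpolation between flanking doses. Not reached: highest tested concentration assigned. GI50 = concentration required for 50% inhibition of growth. At the TGI there is no net growth.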

Columns and labels:
Assay in all cases: NCI anticancer screen, dose series, 48 h; in the data active = GI50 below about 0.43 µM; inactive = the rest
NCI/ADR-RES ovarian = tested on: NCI/ADR-RES ovarian
NCI-H522 lung = tested on: NCI-H522 lung
SNB-19 CNS = tested on: SNB-19 CNS
UACC-257 melanoma = tested on: UACC-257 melanoma
SR leukemia = tested on: SR leukemia
OVCAR-8 ovarian = tested on: OVCAR-8 ovarian
SK-MEL-2 melanoma = tested on: SK-MEL-2 melanoma
NCI-H460 lung = tested on: NCI-H460 lung
CCRF-CEM leukemia = tested on: CCRF-CEM leukemia
HL-60(TB) leukemia = tested on: HL-60(TB) leukemia
UACC-62 melanoma = tested on: UACC-62 melanoma
MOLT-4 leukemia = tested on: MOLT-4 leukemia
LOX IMVI melanoma = tested on: LOX IMVI melanoma
HOP-62 NSCLC = tested on: HOP-62 NSCLC
MCF7 breast = tested on: MCF7 breast
EKVX NSCLC = tested on: EKVX NSCLC
RPMI-8226 leukemia = tested on: RPMI-8226 leukemia
HS 578T breast = tested on: HS 578T breast
SK-MEL-28 melanoma = tested on: SK-MEL-28 melanoma
TK-10 renal = tested on: TK-10 renal
SF-539 CNS = tested on: SF-539 CNS
SW-620 colon = tested on: SW-620 colon
RXF 393 renal = tested on: RXF 393 renal
MALME-3M melanoma = tested on: MALME-3M melanoma
PC-3 prostate = tested on: PC-3 prostate
ACHN renal = tested on: ACHN renal
MDA-MB-435 = tested on: MDA-MB-435
SK-MEL-5 melanoma = tested on: SK-MEL-5 melanoma
SN12C renal = tested on: SN12C renal
A549 NSCLC = tested on: A549 NSCLC
IGROV1 ovarian = tested on: IGROV1 ovarian
BT-549 breast = tested on: BT-549 breast
DU-145 prostate = tested on: DU-145 prostate
NCI-H23 lung = tested on: NCI-H23 lung
NCI-H226 lung = tested on: NCI-H226 lung
K-562 leukemia = tested on: K-562 leukemia
COLO 205 colon = tested on: COLO 205 colon
A498 renal = tested on: A498 renal
SK-OV-3 ovarian = tested on: SK-OV-3 ovarian
CAKI-1 renal = tested on: CAKI-1 renal
OVCAR-3 ovarian = tested on: OVCAR-3 ovarian
OVCAR-5 ovarian = tested on: OVCAR-5 ovarian
HOP-92 NSCLC = tested on: HOP-92 NSCLC
SF-268 CNS = tested on: SF-268 CNS
HT29 colon = tested on: HT29 colon
HCC-2998 colon = tested on: HCC-2998 colon
HCT-116 colon = tested on: HCT-116 colon
UO-31 renal = tested on: UO-31 renal
U251 CNS = tested on: U251 CNS
HCT-15 colon = tested on: HCT-15 colon
M14 melanoma = tested on: M14 melanoma
MDA-MB-231 breast = tested on: MDA-MB-231 breast
786-0 renal = tested on: 786-0 renal
T-47D breast = tested on: T-47D breast
SF-295 CNS = tested on: SF-295 CNS
OVCAR-4 ovarian = tested on: OVCAR-4 ovarian
SNB-75 CNS = tested on: SNB-75 CNS
KM12 colon = tested on: KM12 colon

OCC1SC(n2cnc3cncnc32)C(O)C1O (stereo unspecified)
> 100 µM: TGI (NCI/ADR-RES ovarian) | TGI (NCI-H522 lung) | TGI (SNB-19 CNS) | TGI (UACC-257 melanoma) | TGI (SR leukemia) | TGI (OVCAR-8 ovarian) | TGI (SK-MEL-2 melanoma) | TGI (NCI-H460 lung) | TGI (CCRF-CEM leukemia) | TGI (HL-60(TB) leukemia) | TGI (UACC-62 melanoma) | TGI (MOLT-4 leukemia) | TGI (LOX IMVI melanoma) | TGI (HOP-62 NSCLC) | TGI (MCF7 breast) | TGI (EKVX NSCLC) | TGI (RPMI-8226 leukemia) | TGI (HS 578T breast) | TGI (SK-MEL-28 melanoma) | TGI (TK-10 renal) | TGI (SF-539 CNS) | TGI (SW-620 colon) | TGI (RXF 393 renal) | TGI (MALME-3M melanoma) | TGI (PC-3 prostate) | TGI (ACHN renal) | TGI (MDA-MB-435) | TGI (SK-MEL-5 melanoma) | TGI (SN12C renal) | TGI (A549 NSCLC) | TGI (IGROV1 ovarian) | TGI (BT-549 breast) | TGI (DU-145 prostate) | TGI (NCI-H23 lung) | TGI (NCI-H226 lung) | TGI (K-562 leukemia) | TGI (COLO 205 colon) | TGI (A498 renal) | TGI (SK-OV-3 ovarian) | TGI (CAKI-1 renal) | TGI (OVCAR-3 ovarian) | TGI (OVCAR-5 ovarian) | TGI (HOP-92 NSCLC) | TGI (SF-268 CNS) | TGI (HT29 colon) | TGI (HCC-2998 colon) | TGI (HCT-116 colon) | TGI (UO-31 renal) | TGI (U251 CNS) | TGI (HCT-15 colon) | TGI (M14 melanoma) | TGI (MDA-MB-231 breast) | TGI (786-0 renal) | TGI (T-47D breast) | TGI (SF-295 CNS) | TGI (OVCAR-4 ovarian) | TGI (SNB-75 CNS) | TGI (KM12 colon)
inactive: GI50 (NCI/ADR-RES ovarian) > 100 µM | GI50 (NCI-H522 lung) > 100 µM | GI50 (SNB-19 CNS) > 100 µM | GI50 (UACC-257 melanoma) > 100 µM | GI50 (SR leukemia) > 100 µM | GI50 (OVCAR-8 ovarian) 85.2 µM | GI50 (SK-MEL-2 melanoma) > 100 µM | GI50 (NCI-H460 lung) > 100 µM | GI50 (CCRF-CEM leukemia) > 100 µM | GI50 (HL-60(TB) leukemia) > 100 µM | GI50 (UACC-62 melanoma) > 100 µM | GI50 (MOLT-4 leukemia) > 100 µM | GI50 (LOX IMVI melanoma) > 100 µM | GI50 (HOP-62 NSCLC) > 100 µM | GI50 (MCF7 breast) > 100 µM | GI50 (EKVX NSCLC) > 100 µM | GI50 (RPMI-8226 leukemia) > 100 µM | GI50 (HS 578T breast) > 100 µM | GI50 (SK-MEL-28 melanoma) > 100 µM | GI50 (TK-10 renal) > 100 µM | GI50 (SF-539 CNS) > 100 µM | GI50 (SW-620 colon) > 100 µM | GI50 (RXF 393 renal) > 100 µM | GI50 (MALME-3M melanoma) > 100 µM | GI50 (PC-3 prostate) > 100 µM | GI50 (ACHN renal) > 100 µM | GI50 (MDA-MB-435) > 100 µM | GI50 (SK-MEL-5 melanoma) > 100 µM | GI50 (SN12C renal) > 100 µM | GI50 (A549 NSCLC) > 100 µM | GI50 (IGROV1 ovarian) > 100 µM | GI50 (BT-549 breast) > 100 µM | GI50 (DU-145 prostate) > 100 µM | GI50 (NCI-H23 lung) > 100 µM | GI50 (NCI-H226 lung) > 100 µM | GI50 (K-562 leukemia) > 100 µM | GI50 (COLO 205 colon) > 100 µM | GI50 (A498 renal) > 100 µM | GI50 (SK-OV-3 ovarian) > 100 µM | GI50 (CAKI-1 renal) > 100 µM | GI50 (OVCAR-3 ovarian) > 100 µM | GI50 (OVCAR-5 ovarian) > 100 µM | GI50 (HOP-92 NSCLC) 48.1 µM | GI50 (SF-268 CNS) > 100 µM | GI50 (HT29 colon) > 100 µM | GI50 (HCC-2998 colon) > 100 µM | GI50 (HCT-116 colon) > 100 µM | GI50 (UO-31 renal) > 100 µM | GI50 (U251 CNS) > 100 µM | GI50 (HCT-15 colon) > 100 µM | GI50 (M14 melanoma) > 100 µM | GI50 (MDA-MB-231 breast) > 100 µM | GI50 (786-0 renal) > 100 µM | GI50 (T-47D breast) > 100 µM | GI50 (SF-295 CNS) > 100 µM | GI50 (OVCAR-4 ovarian) > 100 µM | GI50 (SNB-75 CNS) > 100 µM | GI50 (KM12 colon) > 100 µM
